Key:
E. coli ATCC 10536 = assay: BCT test (bacterial contact time), 45 s, log reduction / effect fraction; CI by Compusyn; format: cell-based, Escherichia coli; settings: for log reduction at 0.05 % strength / log reduction at 0.06 % strength / log reduction at 0.07 % strength / log reduction at 0.08 % strength / log reduction at 0.09 % strength: Escherichia coli, ATCC10536, 45 s
Method: E. coli, S. aureus, P. aeruginosa, and S. enterica: Separate suspensions of the E. coli ATCC 10536 strain, S. aureus ATCC 6538 strain, Pseudomonas aeruginosa ATCC 15442 strain, and the Salmonella enterica ATCC 10708 strain were prepared as follows: Stock cultures (stored at −80° C.) were thawed and sub-cultured onto Tryptic Soy Agar (TSA) agar plate media, and incubated at 37° C. for 24 h to obtain single colonies. Single colonies of the primary cultures were streaked onto TSA plates and incubated at 37° for 24 h to generate secondary cultures. Single colonies of secondary cultures picked and used to inoculate into 50 mL of TSB broth. The inoculated TSB broth was incubated at 37° C. at 180 rpm for 18 h. Aliquots (0.5 ml) of the 18 h culture were inoculated into 50 ml of fresh TSB broth, and incubated at 37° C. at 180 rpm for 2-3 hours. When the OD600 nm value of the broth reached 1-2, cells were harvested by centrifugation at 5000 rpm for 10 min, and then resuspended in fresh TSB broth at a concentration of 1-5×10^8 CFU/mL. These suspensions were used as the bacterial suspensions for the BCT test.
(§1) BCT Test: Test compositions at a range of concentrations (either combinations of more than one perfume ingredient, and comparative compositions comprising the single perfume ingredients) were prepared in ethanol. Five replicates of each test composition were added into 96-well microtiter plates (120 μl per well), with row B containing control compositions containing the ethanol solution alone. 120 μl of bacterial cell suspensions at a concentration of approximately 1×10^8 bacteria per mL (as prepared above) were added to each well of the microtiter plate. The bacterial suspensions were incubated with the test solutions for 45, 60, or 120 seconds. Following the incubation of the bacterial suspensions with the test solutions, serial dilutions of the bacterial suspensions were generated (three serial 1:10 dilutions, followed by 17 serial 1:2 dilutions), in multiwell microtiter plates.
(§2) Each plate was sealed and incubated at 37° C. under agitation (180 rpm). After incubation, the turbidity of the wells (OD600 nm) was determined using a Tecan microplate reader. Turbid wells were regarded as positive growth, due to the presence of viable cells. The total number of viable cells (log CFU) for each sample was calculated. And the log reduction for each test composition at the final concentration (dose) was calculated against the control sample of the ethanol solution.
(§3) Determination of Synergy via the Combination Index (CI): The CI was calculated using Compusyn software (ComboSyn, Inc., as created by Dr. Dorothy Chou in 2005), according to the manufacturer's instructions. The concentration of each test composition (combinations of more than one perfume ingredient, and comparative compositions comprising the single perfume ingredients used to generate the combination) and their corresponding effect fraction was entered, and the corresponding CI calculated.
(§4) When the calculated CI values were less than 0.9, the combination of perfume ingredients was regarded as having synergistic effect. When the calculated CI was between 1.0 a 0.9, the combination of perfume ingredients was regarded as having an additive effect. When the calculated CI was greater than 1.0, the combination of perfume ingredients was regarded as having an antagonistic effect.

C. xerosis ATCC 373 = assay: BCT test (bacterial contact time), 120 s, log reduction / effect fraction; CI by Compusyn; format: cell-based; settings: Corynebacterium xerosis, ATCC373, 2 min, contact 120 s, 25% EtOH; for log reduction at 0.1 % strength: dose 0.1% w/v
Method: C. xerosis: Suspensions of the C. xerosis ATCC 373 strain were prepared as follows: Stock cultures (stored at −80° C.) were thawed and subcultured onto Tryptic Soy Agar media with Tween 80 (TSA-TW80), and incubated at 37° C. for 48 h. The primary cultures were subcultured onto TSA-TW80 again, to prepare the secondary cultures. Single colonies of the secondary cultures were selected and used to inoculate 30 ml brain heart infusion broth with Tween 80 (BHI-TW80). The inoculated broth was incubated at 37° C. at 180 rpm for 24 h. Aliquots (1 ml) of the 24 h culture were inoculated into 30 ml of fresh BHI-TW80 broth media, and incubated at 37° C. at 180 rpm for 48 h. Aliquots (2-3 ml) of the 48 h culture were inoculated into four 50 ml of fresh BHI-TW80 broth media, and incubated at 37° C. 180 rpm for 4-6 hrs. When the OD 600 nm reached the target value of 1.6, cells were harvested by centrifugation at 5000 rpm for 10 min, and then resuspended in the same fresh BHI-TW80 at a concentration of 10^9 to 10^10 cfu/mL. This suspension was used as the bacterial suspension for the BCT test.
as §1, §2, §3, §4

[1] = system: Pseudomonas aeruginosa ATCC 15442; assay: BCT test (bacterial contact time), 60 s, log reduction / effect fraction; CI by Compusyn; format: cell-based; settings: Pseudomonas aeruginosa, ATCC15442, 1 min, BCT 60 s, in 25% EtOH; for log reduction at 0.05 % strength: Dose 0.05 % w/v
Outline: (§5)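 Log-phase cultures (OD600 1-2) were resuspended in TSB at about 1×10^8 bacteria/mL and mixed 1:1 with ethanolic perfume combinations or single ingredients, five replicates each. After the stated contact time, serial dilutions were grown at 37° C and viable counts derived from OD600 turbidity; log reduction is versus ethanol control.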

[2] = system: Salmonella enterica ATCC 10708; assay: as above; format: cell-based; settings: Salmonella enterica, ATCC10708, 1 min, BCT 60 s, in 25% EtOH; for log reduction at 0.04 % strength: Dose 0.04 % w/v; for log reduction at 0.05 % strength: Dose 0.05 % w/v, read-out: Log reduction; for log reduction at 0.06 % strength: Dose 0.06 % w/v
Outline: as §5

S. aureus ATCC 6538 = assay: as above; format: cell-based, Staphylococcus aureus; settings: Staphylococcus aureus, ATCC6538, 1 min, 60 s, in 25% EtOH; for log reduction at 0.1 % strength: dose 0.100 % w/v
Outline: as §5

[3] = dose 0.050 % w/v, 45 s, in 20% EtOH
[4] = dose 0.05% w/v, contact 45 s, 20% EtOH
[5] = dose 0.060 % w/v, 45 s, in 20% EtOH
[6] = dose 0.06% w/v, contact 45 s, 20% EtOH
[7] = dose 0.070 % w/v, 45 s, in 20% EtOH
[8] = dose 0.07% w/v, contact 45 s, 20% EtOH
[9] = dose 0.080 % w/v, 45 s, in 20% EtOH
[10] = dose 0.08% w/v, contact 45 s, 20% EtOH
[11] = dose 0.090 % w/v, 45 s, in 20% EtOH
[12] = dose 0.09% w/v, contact 45 s, 20% EtOH

SMILES | log reduction at 0.05 % strength (E. coli ATCC 10536; [3]) | log reduction at 0.05 % strength (E. coli ATCC 10536; [4]) | log reduction at 0.06 % strength (E. coli ATCC 10536; [5]) | log reduction at 0.06 % strength (E. coli ATCC 10536; [6]) | log reduction at 0.07 % strength (E. coli ATCC 10536; [7]) | log reduction at 0.07 % strength (E. coli ATCC 10536; [8]) | log reduction at 0.08 % strength (E. coli ATCC 10536; [9]) | log reduction at 0.08 % strength (E. coli ATCC 10536; [10]) | log reduction at 0.09 % strength (E. coli ATCC 10536; [11]) | log reduction at 0.09 % strength (E. coli ATCC 10536; [12]) | log reduction at 0.1 % strength (C. xerosis ATCC 373) | log reduction at 0.05 % strength [1] | log reduction at 0.04 % strength [2] | log reduction at 0.05 % strength [2] | log reduction at 0.06 % strength [2] | log reduction at 0.1 % strength (S. aureus ATCC 6538) | other results
CCCCCCC1CCC(=O)O1 (stereo not shown) [Decal] | 0.1 | 0 | 0.7 | 0.9 | 2.4 | 2.8 | 6.4 | 6.1 | 7.1 | 7.3 | 0.1 | 1.3 | 0.3 | 0.7 | 1.3 | 5 | Log reduction (E. coli ATCC 10536; [3]): 0.1; log reduction at 0.15 % strength (C. xerosis ATCC 373; dose 0.15% w/v): 2.2; log reduction at 0.2 % strength (C. xerosis ATCC 373; dose 0.2% w/v, read-out: Log reduction): 4.6; log reduction at 0.25 % strength (C. xerosis ATCC 373; dose 0.25% w/v, read-out: Log reduction): 5.4; log reduction at 0.3 % strength (C. xerosis ATCC 373; dose 0.3% w/v, read-out: Log reduction): 6.1; log reduction at 0.055 % strength ([1]; Dose 0.055 % w/v): 2.7; log reduction at 0.06 % strength ([1]; Dose 0.06 % w/v): 2.8; log reduction at 0.065 % strength ([1]; Dose 0.065 % w/v): 4.7; log reduction at 0.07 % strength ([1]; Dose 0.07 % w/v): 5.2; log reduction at 0.07 % strength ([2]; Dose 0.07 % w/v): 2.2; log reduction at 0.08 % strength ([2]; Dose 0.080 % w/v): 5.8; log reduction at 0.08 % strength (S. aureus ATCC 6538; dose 0.080 % w/v): 2.4; log reduction at 0.12 % strength (S. aureus ATCC 6538; dose 0.120 % w/v): 6.6; log reduction at 0.16 % strength (S. aureus ATCC 6538; dose 0.160 % w/v): 7.2; log reduction at 0.2 % strength (S. aureus ATCC 6538; dose 0.200 % w/v, read-out: Log reduction): 7
CC(C)=CCC/C(C)=C\CO [Nerol, (Z)-3,7-dimethyl-2,6-octadien-1-ol] | 1.1 | 0.1 | 3.2 | 3.2 | 6.7 | 7 | 7.3 | 7.4 | 7.3 | 7.4 | 0.5 | 3.6 | 2.2 | 5.6 | 7.3 | 7 | log reduction at 0.08 % strength (C. xerosis ATCC 373; dose 0.08% w/v): -0.1; log reduction at 0.12 % strength (C. xerosis ATCC 373; dose 0.12% w/v): 2.6; log reduction at 0.14 % strength (C. xerosis ATCC 373; dose 0.14% w/v): 4.9; log reduction at 0.16 % strength (C. xerosis ATCC 373; dose 0.16% w/v): 7.2; log reduction at 0.025 % strength ([1]; Dose 0.025 % w/v): 0.4; log reduction at 0.0625 % strength ([1]; Dose 0.0625 % w/v): 5.6; log reduction at 0.075 % strength ([1]; Dose 0.075 % w/v): 7.4; log reduction at 0.1 % strength ([1]; Dose 0.1 % w/v): 7.4; log reduction at 0.01 % strength ([2]; Dose 0.01 % w/v): 0; log reduction at 0.03 % strength ([2]; Dose 0.03 % w/v): 0.7; log reduction at 0.0625 % strength (S. aureus ATCC 6538; dose 0.0625 % w/v): 1.3; log reduction at 0.075 % strength (S. aureus ATCC 6538; dose 0.075 % w/v): 3.2; log reduction at 0.125 % strength (S. aureus ATCC 6538; dose 0.125 % w/v): 7.3; log reduction at 0.15 % strength (S. aureus ATCC 6538; dose 0.150 % w/v, read-out: Log reduction): 7.5

From patent US12419305B2, “Antimicrobial compositions” (Firmenich SA, priority 2018, dated 2025)
